# Reference: patent US10690666B2, “Methods and compositions for modulating TH-GM cell function” (National University of Singapore, priority 2014, dated 2020)
# Test system: AIA mice
# Test: Antigen-induced arthritis (AIA) model
# Type: in vivo, mouse
# From the text: FIGS. 25A-25E depict distinguishable effects of GM-CSF and TNF-α in mouse AIA. […] Data are representative of more than three independent experiments. Representative images of joint sections stained with H&E (FIG. 25C) or Safranin-O/Fast Green (FIG. 25D) at day 7 after arthritis induction as in FIG. 25C. Bars, 500 μm (FIG. 25C upper panels and FIG. 25D) or 100 μm (FIG. 25C lower panels). Arrow in upper panels (FIG. 25C) indicated bone destruction. In FIG. 25E, serum concentrations of GM-CSF, IFN-γ and TNF-α in Stat5^+/+ and Stat5−/− AIA mice were quantified by ELISA. Statistics of n>=8 per group were shown. *p<0.05, **p<0.01, ***p<0.001.
# FIGS. 28A-28G depicts STAT5-regulated GM-CSF-producing TH cells are crucial for AIA. Spleens and synovial tissues were collected from Stat5^+/+ and Stat5^−/− mice at day 7 after arthritis induction. (FIG. 28A) Splenic fractions of wild-type AIA mice (n=3) were stimulated under indicated conditions for 18 h. GM-CSF levels in supernatant were quantified by ELISA. (FIGS. 28B-28D) Intracellular staining and flow cytometry of GM-CSF, IL-17 and IFN-γ in splenic CD4^+CD44^hi effector T cells (FIG. 28B) or in synovial infiltrating CD4^+ T cells (FIGS. 28C and 28D) after restimulation for 4 h with PMA/Ionomycin in the presence of Golgiplug. Representative images and statistics of n=5 (FIG. 28B, right panels) or n=3 (FIG. 28D, right panels) per group were shown. Data represent two independent experiments. (FIG. 28E) Protein expression of several proinflammatory cytokines in synovial tissues was measured by ELISA. (FIGS. 28F and 28G) Representative images of joint sections stained with H&E (FIG. 28F) or Safranin-O/Fast Green (FIG. 28G) at day 7 after intraarticular injection of mBSA alone to the right knee joints and mBSA supplemented with GM-CSF to the left knee joints. Bars, 500, 50 or 200 μm as indicated. Data represent two independent experiments.*p<0.05, **p<0.01, p<0.05, **p<0.01, ***p<0.001; ns, not significant. “Splenocytes” represent the left-most bars in each group, “splenocytes depleted of CD4+ T cells” represent the middle bars in each group, and “CD4+ T cells” represent the right-most bars in each group.
# FIGS. 31A-31D depicts SAT5-induced GM-CSF expression mediates CD11b^+ cell accumulation in inflamed synovial tissues. (FIG. 31A) The frequencies of CD11b^+ cells in spleens of Stat5^+/+ and Stat5^−/− AIA mice were analyzed by flow cytometry. Statistics of n=3 per group (right panel) were shown. (FIG. 31B) Synovial tissues were harvested from Stat5^+/+ and Stat5^−/− mice at day 7 after arthritis induction, and dissociated into single cell suspensions. The percentage of CD11b^+ myeloid cells among CD45^+ fraction was analyzed by flow cytometry. Statistics of n=5 per group were shown in right panel. […]
# [1] = 100 ng intraarticular together with mBSA, day 7
substance,measurement,setting,value
GM-CSF: granulocyte macrophage colony-stimulating factor (ImmunoTools) given intraarticularly or added to cell cultures,cartilage depletion in Stat5−/− mice (Safranin-O/Fast Green),[1],severe cartilage depletion
same,synovial inflammation in Stat5−/− mice,[1],efficiently restored synovial inflammation
same,neutrophil accumulation in synovial compartments of STAT5-deficient mice,intraarticular administration during arthritis induction,efficiently restored neutrophil accumulation
same,synovial CD11b+ cell accumulation in STAT5-deficient mice,local administration during arthritis induction,partially restored
